Test results reported in patent US20230063457A1, “DNA-PK INHIBITING COMPOUNDS” (Provincial Health Services Authority, priority 2019, published 2023).

Columns and labels:
[1] = target: T1, Phospho-DNA-PK in FaDu Cells (Homo sapiens, UniProt P78527); experiment: Effect of compounds on phospho-DNA-PK in FaDu cells (MesoScale sandwich immunoassay); format: cell-based; details: 1 hour pre-incubation, 1 μg/ml Neocarzinostatin 2 hours, averaged values, read-out: MSD FaDu IC50
T1 construct: host or cells: FaDu
Description: Effect of Compounds on Phospho-DNA-PK in FaDu Cells
All compounds tested were dissolved in DMSO and further dilutions were made in culture medium. Final DMSO concentration was 0.3% (v/v). The human FaDu cells (ATCC) were cultured in MEM medium supplemented with Glutamax and 10% fetal calf serum (PAA). Cells were routinely maintained at densities of 0.2×10^6 cells per ml at 37° C. in a humidified 5% CO2, 95% air atmosphere. Cells were passaged twice a week, splitting back to obtain the low density. Cells were seeded in 96 well plates (Corning 3904) at 1×10^6 cells per ml media in a volume of 50 μl per well. Seeded cells were incubated at 37° C. in a humidified 5% CO2, 95% air atmosphere for 24 hours. Compounds were added (25 μl) to the cells and pre-incubated for 1 hour. 1 μg/ml DNA-damaging agent Neocarzinostatin (NCS) was added (25 μl) to a final volume of 100 μl and incubated for 2 hours at 37° C. in a humidified 5% CO2, 95% air atmosphere. After this period of time plates were removed from the incubator and the 100 μl dilutions were removed from the wells gently, prior to the addition of 75 μl cold RIPA lysis buffer with protease and phosphatase inhibitors to achieve the cells lysis, followed by shaking on a plate shaker at 4° C. for 30 minutes. At the end of this incubation, lysate was assessed for phospho-DNA-PK levels by sandwich immune-assay carried out in anti-mouse antibody coated MesoScale plates. […] Signal obtained in the wells containing blank samples was subtracted from all other wells and IC50 values were determined by fitting a sigmoidal curve to % inhibition of control versus Logo compound concentration.

DNA-PK kinase = DNA-PK kinase (Homo sapiens, UniProt P78527); experiment: Inhibition of DNA-PK kinase activity (ADP-Glo); format: biochemical; details: averaged values over all measurements on all batches; 150 μM ATP, 1 hour at 25° C.
Description: Inhibition of DNA-PK Kinase Activity Assay buffer was 50 mM Hepes pH 7.5 containing 0.1 mg/ml BSA (albumin from bovine serum), 50 μM DTT (dithiothreitol), 20 mM MgCl2 and 10 μg/ml calf thymus DNA (activation buffer). Kinase reaction was carried out in OptiPlate 384 plates (PerkinElmer 6007299). All compounds tested were dissolved in dimethyl sulfoxide (DMSO) and further dilutions were made in assay buffer. Final DMSO concentration was 1% (v/v). Pre-incubation consisted of compound (1% DMSO in control and blank wells) and 24 ng/well DNA-PK kinase to allow the compounds to bind the enzyme (with buffer in the blank wells) for 15 minutes; after this time 150 μM Adenosine-5′-triphosphate (ATP) and 0.2 μg/μl DNA-PK substrate were added to commence the kinase reaction. Incubations were carried out for 1 hour at 25° C. Kinase activity was determined by using ADP-Glo™ reagent from Promega according to the manufacturer's instructions. The light generated was measured using a luminometer (EnVision, PerkinElmer). Signal obtained in the wells containing blank samples was subtracted from all other wells and IC50 values were determined by fitting a sigmoidal curve to % inhibition of control versus Log10 compound concentration.

| SMILES | IC50 [1] [nM] | IC50 (DNA-PK kinase) [nM] |
| --- | --- | --- |
| NC(=O)c1ccnc(NCC2CCN(c3nc(N4CCOCC4)cc4ncccc34)CC2)n1 [Example 99] | 724 | 15 |
| COC(=O)c1cc(N)nc(NCC2CCN(c3nc(N4CCOCC4)cc4ncccc34)CC2)n1 [Example 100] | 2360 | 32 |
| Cc1cc(C(N)=O)nc(NCC2CCN(c3nc(N4CCOCC4)cc4ncccc34)CC2)n1 [Example 101] | 2130 | 32 |
| Cc1cnc(NCC2CCN(c3nc(N4CCOCC4)cc4ncccc34)CC2)nc1 [Example 102] | 905 | 39 |
| N#Cc1cnc(NCC2CCN(c3nc(N4CCOCC4)cc4ncccc34)CC2)nc1N [Example 103] | 3700 | 45 |
| Fc1cnc(NCC2CCN(c3nc(N4CCOCC4)cc4ncccc34)CC2)nc1 [Example 104] | 3020 | 50 |
| CNC(=O)c1ccnc(NCC2CCN(c3nc(N4CCOCC4)cc4ncccc34)CC2)n1 [Example 105] | 1160 | 51 |
| CN(C)C(=O)c1ccnc(NCC2CCN(c3nc(N4CCOCC4)cc4ncccc34)CC2)n1 [Example 106] | 11400 | 52 |
| N#Cc1cnc(NCC2CCN(c3nc(N4CCOCC4)cc4ncccc34)CC2)nc1 [Example 107] | 2370 | 66 |
| N#Cc1ccnc(NCC2CCN(c3nc(N4CCOCC4)cc4ncccc34)CC2)n1 [Example 108] | 3380 | 69 |
| Cc1ccnc(NCC2CCN(c3nc(N4CCOCC4)cc4ncccc34)CC2)n1 [Example 109] | 4830 | 76 |
| COc1ccnc(NCC2CCN(c3nc(N4CCOCC4)cc4ncccc34)CC2)n1 [Example 111] | 2140 | 88 |
| CCOC(=O)c1cnc(NCC2CCN(c3nc(N4CCOCC4)cc4ncccc34)CC2)nc1 [Example 112] | 2030 | 112 |
| Oc1ccnc(NCC2CCN(c3nc(N4CCOCC4)cc4ncccc34)CC2)n1 [Example 113] | 6600 | 114 |
| c1cnc2cc(N3CCOCC3)nc(N3CCC(CNc4cnccn4)CC3)c2c1 [Example 114] | 9670 | 117 |
| N#Cc1cccnc1NCC1CCN(c2nc(N3CCOCC3)cc3ncccc23)CC1 [Example 115] | 7990 | 120 |
| Cc1cc(C)nc(NCC2CCN(c3nc(N4CCOCC4)cc4ncccc34)CC2)n1 [Example 117] | 1930 | 125 |
| N#Cc1cccc(-c2ccnc(NCC3CCN(c4nc(N5CCOCC5)cc5ncccc45)CC3)n2)n1 [Example 119] | 2410 | 136 |
| c1cnc2cc(N3CCOCC3)nc(N3CCC(CNc4ccncn4)CC3)c2c1 [Example 120] | 3180 | 140 |
| FC(F)(F)c1cnc(NCC2CCN(c3nc(N4CCOCC4)cc4ncccc34)CC2)nc1 [Example 121] | 3520 | 143 |
| c1ccc(NCC2CCN(c3nc(N4CCOCC4)cc4ncccc34)CC2)nc1 [Example 122] | 4360 | 185 |
| c1cnc(N2CCC(Oc3nc(N4CCOCC4)cc4ncccc34)CC2)nc1 [Example 127] | 13800 | 203 |
| c1cnc(N2CC(COc3nc(N4CCOCC4)cc4ncccc34)C2)nc1 [Example 128] | 1390 | 30 |
| c1cnc(N2CCC(COc3nc(N4CCOCC4)cc4ncccc34)CC2)nc1 [Example 129] | 1310 | 44 |
| c1cnc(NCCC2CCN(c3nc(N4CCOCC4)cc4ncccc34)CC2)nc1 [Example 130] | 2530 | 48 |
| Fc1ccnc(NCC2CCN(c3nc(N4CCOCC4)cc4ncccc34)CC2)c1 [Example 132] | 10600 | 82 |

| SMILES | IC50 [1] [nM] | IC50 (DNA-PK kinase) [nM] |
| --- | --- | --- |
| c1cncc(NCC2CCN(c3nc(N4CCOCC4)cc4ncccc34)CC2)c1 [Example 133] | 11400 | 155 |
| CS(=O)(=O)N1CCC(Oc2nc(N3CCOCC3)cc3ncccc23)CC1 [Example 143] | 1800 | 110 |
| CS(=O)(=O)N1CCN(c2nc(N3CCOCC3)cc3ncccc23)CC1 [Example 144] | 2890 | 117 |
| CNC(=O)N1CC(COc2nc(N3CCOCC3)cc3ncccc23)C1 [Example 148] | 4920 | 171 |
| c1cnc2cc(N3CCOCC3)nc(OC3CCN(c4ncn[nH]4)CC3)c2c1 [Example 155] | 7860 | 134 |
| F[C@H]1CN(c2ncn[nH]2)CC[C@@H]1Oc1nc(N2CCOCC2)cc2ncccc12 [Example 156] | 875 | 93 |
| CC1CN(c2ncn[nH]2)CCC1Oc1nc(N2CCOCC2)cc2ncccc12 (stereo not drawn) [Example 157] | 3000 | 160 |
| Oc1cnc2cc(N3CCOCC3)nc(O[C@H]3CC[C@@H](n4cc(F)cn4)CC3)c2c1 [Example 163] | 134 | 2 |
| Oc1cnc2cc(N3CCOCC3)nc(O[C@H]3CC[C@@H](c4cccs4)CC3)c2c1 [Example 164] | 3740 | 58 |
| Oc1cnc2cc(N3CCOCC3)nc(O[C@H]3CC[C@@H](c4ccccc4)CC3)c2c1 [Example 165] | 1170 | 31 |
| Cn1cc([C@H]2CC[C@@H](Oc3nc(N4CCOCC4)cc4ncc(O)cc34)CC2)cn1 [Example 166] | 190 | 4 |
| Oc1cnc2cc(N3CCOCC3)nc(O[C@H]3CC[C@@H](c4cscn4)CC3)c2c1 [Example 167] | 219 | 4 |
| Oc1cnc2cc(N3CCOCC3)nc(O[C@H]3CC[C@@H](c4nccs4)CC3)c2c1 [Example 168] | 272 | 5 |
| O=C1NCC(CNc2nc(N3CCOCC3)cc3ncccc23)CO1 (stereo not drawn) [Parent compound 97] | 3330 | 27 |
| c1cnc(NCC2CN(c3nc(N4CCOCC4)cc4ncccc34)C2)nc1 [Parent compound 98] | 702 | 36 |
| c1cnnc(NCC2CCN(c3nc(N4CCOCC4)cc4ncccc34)CC2)c1 [Parent compound 131] | 7310 | 63 |
| CN1CC(CNc2nc(N3CCOCC3)cc3ncccc23)COC1=O (stereo not drawn) [Parent compound 150] | 1920 | 66 |
| c1cnc2cc(N3CCOCC3)nc(OCC3CN(c4ncn[nH]4)C3)c2c1 [Parent compound 151] | 1690 | 82 |
| c1cnc2cc(N3CCOCC3)nc(NCC3CCN(c4nnc[nH]4)CC3)c2c1 [Parent compound 152] | 5790 | 19 |
| c1cnc2cc(N3CCOCC3)nc(N3CCC(CNc4nnc[nH]4)CC3)c2c1 [Parent compound 153] | 2490 | 30 |
| c1cnc2cc(N3CCOCC3)nc(OCC3CCN(c4ncn[nH]4)CC3)c2c1 [Parent compound 154] | 1070 | 26 |
| C[C@H]1CN(c2ncn[nH]2)CC[C@H]1Oc1nc(N2CCOCC2)cc2ncccc12 [Parent compound 161] | 2890 | 125 |
| COc1cnc2cc(N3CCOCC3)nc(O[C@H]3CC[C@@H](n4cc(F)cn4)CC3)c2c1 [Parent compound 170] | 232 | 8 |
| CNc1cnc2cc(N3CCOCC3)nc(O[C@H]3CC[C@@H](n4ccnc4)CC3)c2c1 [Parent compound 171] | 270 | 10 |
| CCCCc1nc2cc(N3CCOCC3)nc(O[C@H]3CC[C@@H](n4cc(F)cn4)CC3)c2cc1O [Parent compound 175] | 464 | 18 |
